Test results reported in US10988478B1, “Pyrazolo[1,5a]pyrimidine derivatives as IRAK4 modulators” (Genentech, Inc., priority 2015, dated 2021).

biological target: human IRAK4 (Homo sapiens (Human), UniProt Q9NWZ3); assay: IRAK4 kinase inhibition, Transcreener fluorescence polarization ADP assay; assay type: biochemical; details: recombinant full-length His6-IRAK4; 125 uM ATP; 90 min; Ki computed using ATP Km 642 uM
Protocol: Compounds were assayed for inhibition of human IRAK4 and IRAK1 catalytic activity using recombinant enzyme produced from insect cells. Full-length IRAK4 protein, carrying an N-terminal His6-Tag, was obtained from Life Technologies (Carlsbad, Calif., USA). The IRAK1 construct was produced internally and was comprised of IRAK1 residues Arg194 to Ser712, preceded by an NH2-terminal His6 tag and the coding sequence for glutathione-S-transferase.

Chain of human IRAK4 (Q9NWZ3 whole entry, the tested form may be a part): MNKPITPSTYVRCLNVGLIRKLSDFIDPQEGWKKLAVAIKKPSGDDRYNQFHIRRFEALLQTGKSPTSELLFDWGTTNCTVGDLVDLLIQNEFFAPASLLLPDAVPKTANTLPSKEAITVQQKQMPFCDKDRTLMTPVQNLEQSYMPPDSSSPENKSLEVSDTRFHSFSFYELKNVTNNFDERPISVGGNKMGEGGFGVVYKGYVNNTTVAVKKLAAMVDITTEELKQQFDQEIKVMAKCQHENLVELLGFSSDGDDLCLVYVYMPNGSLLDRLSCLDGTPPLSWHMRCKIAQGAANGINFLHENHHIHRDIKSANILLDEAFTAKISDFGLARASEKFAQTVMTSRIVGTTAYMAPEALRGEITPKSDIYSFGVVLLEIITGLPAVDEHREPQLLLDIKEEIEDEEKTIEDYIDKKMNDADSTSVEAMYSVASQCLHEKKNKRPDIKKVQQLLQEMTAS

| Ki [nM] | Compound |
| --- | --- |
| 260 | C[C@]1(O)COc2cc(N3CCOCC3)c(NC(=O)c3cnn4cccnc34)cc2C1 (single isomer, unassigned) [Example 27] |
| 27 | C[C@@]1(O)COc2cc(N3CCOCC3)c(NC(=O)c3cnn4cccnc34)cc2C1 (single isomer, unassigned) [Example 28] |
| 1.7 | C[C@]1(CO)Cc2cc(NC(=O)c3cnn4cccnc34)c(N3CCC(F)(CO)CC3)cc2O1 (single isomer, unassigned) [Example 44] |
| 1.9 | C[C@@]1(CO)Cc2cc(NC(=O)c3cnn4cccnc34)c(N3CCC(F)(CO)CC3)cc2O1 (single isomer, unassigned) [Example 45] |
| 540 | C[C@@]1(CO)Cc2cc(NC(=O)c3cnn4cccnc34)c(N3C[C@@H]4C[C@H]3CO4)cc2O1 (single isomer, unassigned) [Example 46] |
| 7.2 | CC[C@]1(C)Cc2cc(NC(=O)c3cnn4cccnc34)c(N3CCOCC3)cc2O1 (single isomer, unassigned) [Example 97] |
| 18 | C[C@]1(CO)Cc2cc(NC(=O)c3cnn4cc(Cl)cnc34)c(N3CCOCC3)cc2O1 (single isomer, unassigned) [Example 166] |
| 2.5 | C[C@@]1(CO)Cc2cc(NC(=O)c3cnn4cc(Cl)cnc34)c(N3CCN(CC(F)F)CC3)cc2O1 (single isomer, unassigned) [Example 169] |
| 94 | CC1(C)Cc2cc(NC(=O)c3cnn4cccnc34)c(N3CC[C@@]4(CCOC4)C3)cc2O1 (single isomer, unassigned) [Example 222] |
| 72 | CC1(C)Cc2cc(NC(=O)c3cnn4cccnc34)c(N3CC[C@]4(CCOC4)C3)cc2O1 (single isomer, unassigned) [Example 223] |
| 2 | CC(C)(O)[C@H](F)CN1Cc2cc(NC(=O)c3cnn4cccnc34)c(N3CCC([C@H](O)C(F)(F)F)CC3)cc2C1=O (single isomer, unassigned) [Example 259] |
| 34 | O=C(Nc1cc2c(cc1N1CCOCC1)C(=O)N(C1CCOC1)C2)c1cnn2cccnc12 (single isomer, unassigned) [Example 275, N-(6-morpholino-1-oxo-2-(tetrahydrofuran-3-yl)isoindolin-5-yl)pyrazolo[1,5-a]pyrimidine-3-carboxamide] |
| 26 | O=C(Nc1cc2c(cc1N1CCOCC1)C(=O)N(C1CCOC1)C2)c1cnn2cccnc12 (single isomer, unassigned) [Example 276, N-(6-morpholino-1-oxo-2-(tetrahydrofuran-3-yl)isoindolin-5-yl)pyrazolo[1,5-a]pyrimidine-3-carboxamide] |
| 16 | O=C(Nc1cc2c(cc1N1CCOCC1)C(=O)N(CC1CCCCO1)C2)c1cnn2cccnc12 (single isomer, unassigned) [Example 277, N-(6-morpholino-1-oxo-2-((tetrahydro-2H-pyran-2-yl)methyl)isoindolin-5-yl)pyrazolo[1,5-a]pyrimidine-3-carboxamide] |
| 4 | O=C(Nc1cc2c(cc1N1CCOCC1)C(=O)N(CC1CCCCO1)C2)c1cnn2cccnc12 (single isomer, unassigned) [Example 278, N-(6-morpholino-1-oxo-2-((tetrahydro-2H-pyran-2-yl)methyl)isoindolin-5-yl)pyrazolo[1,5-a]pyrimidine-3-carboxamide] |
| 2 | CC(C)(O)[C@H](F)CN1Cc2cc(NC(=O)c3cnn4cccnc34)c(N3CCC([C@H](O)C(F)F)CC3)cc2C1=O (single isomer, unassigned) [Example 282] |
| 2 | CC(C)(O)[C@H](F)CN1Cc2cc(NC(=O)c3cnn4cccnc34)c(N3CCC([C@@H](O)C(F)F)CC3)cc2C1=O (single isomer, unassigned) [Example 283] |
| 4.3 | O=C(Nc1cc2c(cc1N1CCC(F)(CO)CC1)O[C@](CO)(C(F)(F)F)C2)c1cnn2cccnc12 (single isomer, unassigned) [Example 318] |
| 12 | C[C@@]1(O)CCCN(c2cc3c(cc2NC(=O)c2cnn4cccnc24)C[C@@](C)(CO)O3)CC1 (single isomer, unassigned) [Example 331] |
| 8 | CC1(CO)Cc2cc(NC(=O)c3cnn4cccnc34)c(N3CCC(n4ccnc4)CC3)cc2O1 (single isomer, unassigned) [Example 344, N-(6-(4-(1H-imidazol-1-yl)piperidin-1-yl)-2-(hydroxymethyl)-2-methyl-2,3-dihydrobenzofuran-5-yl)pyrazolo[1,5-a]pyrimidine-3-carboxamide] |
| 4 | CC1(CO)Cc2cc(NC(=O)c3cnn4cccnc34)c(N3CCC(n4ccnc4)CC3)cc2O1 (single isomer, unassigned) [Example 345, N-(6-(4-(1H-imidazol-1-yl)piperidin-1-yl)-2-(hydroxymethyl)-2-methyl-2,3-dihydrobenzofuran-5-yl)pyrazolo[1,5-a]pyrimidine-3-carboxamide] |

| Ki [nM] | Compound |
| --- | --- |
| 3.6 | C[C@]1(CO)Cc2cc(NC(=O)c3cnn4cccnc34)c(N3CCC4(CC3)CNC(=O)C4)cc2O1 (single isomer, unassigned) [Example 417] |
| 9 | C[C@]1(CO)Cc2cc(NC(=O)c3cnn4cccnc34)c(N3Cc4cccnc4C3)cc2O1 (single isomer, unassigned) [Example 419] |
| 110 | C[C@]1(O)COc2cc(N3CCC([C@@](C)(O)C(F)(F)F)CC3)c(NC(=O)c3cnn4cccnc34)cc2C1 (single isomer, unassigned) [Example 422] |
| 130 | Cn1cc(COc2cc3c(cc2NC(=O)c2cnn4cccnc24)C[C@@](C)(O)CO3)cn1 (single isomer, unassigned) [Example 430] |
| 10 | C[C@]1(CO)CCc2cc(NC(=O)c3cnn4cccnc34)c(N3CCOCC3)cc2O1 (single isomer, unassigned) [Example 432] |
| 14 | C[C@@]1(CO)CCc2cc(NC(=O)c3cnn4cccnc34)c(N3CCOCC3)cc2O1 (single isomer, unassigned) [Example 433] |
| 10 | C[C@@]1(CO)CCc2cc(NC(=O)c3cnn4cccnc34)c(N3CCOCC3)cc2O1 (single isomer, unassigned) [Example 436] |
| 14 | C[C@]1(CO)CCc2cc(NC(=O)c3cnn4cccnc34)c(N3CCOCC3)cc2O1 (single isomer, unassigned) [Example 437] |
| 3.8 | O=C(Nc1cc2c(cc1N1CCOCC1)C(=O)N(CC1CCOC1)C2)c1cnn2cccnc12 (single isomer, unassigned) [Example 555] |
| 13 | CC(CC(C)(C)O)N1Cc2cc(NC(=O)c3cnn4cccnc34)c(N3CCOCC3)cc2C1=O (stereo in doubt) [Example 544, N-[2-[(1S)-3-hydroxy-1,3-dimethyl-butyl]-6-morpholino-1-oxo-isoindolin-5-yl]pyrazolo[1,5-a]pyrimidine-3-carboxamide] |
| 5.9 | CC(CC(C)(C)O)N1Cc2cc(NC(=O)c3cnn4cccnc34)c(N3CCOCC3)cc2C1=O (stereo in doubt) [Example 545, N-[2-[(1R)-3-hydroxy-1,3-dimethyl-butyl]-6-morpholino-1-oxo-isoindolin-5-yl]pyrazolo[1,5-a]pyrimidine-3-carboxamide] |
| 8.1 | O=C(Nc1cc2c(cc1N1CCOCC1)C(=O)N(C[C@@H]1CCC[C@H]1O)C2)c1cnn2cccnc12 (stereo in doubt) [Example 549, N-[2-[[(1S,2R)-2-hydroxycyclopentyl]methyl]-6-morpholino-1-oxo-isoindolin-5-yl]pyrazolo[1,5-a]pyrimidine-3-carboxamide] |
| 2.1 | O=C(Nc1cc2c(cc1N1CCOCC1)C(=O)N(C[C@H]1CCC[C@@H]1O)C2)c1cnn2cccnc12 (stereo in doubt) [Example 550, N-[2-[[(1R,2S)-2-hydroxycyclopentyl]methyl]-6-morpholino-1-oxo-isoindolin-5-yl]pyrazolo[1,5-a]pyrimidine-3-carboxamide] |
| 4.7 | O=C(Nc1cc2c(cc1N1CCC(CO)CC1)OCCN2)c1cnn2cccnc12 [Example 1, N-(7-(4-(Hydroxymethyl)piperidin-1-yl)-3,4-dihydro-2H-benzo[b][1,4]oxazin-6-yl)pyrazolo[1,5-a]pyrimidine-3-carboxamide] |
| 26 | O=C1COc2cc(N3CCC(CO)CC3)c(NC(=O)c3cnn4cccnc34)cc2N1 [Example 2, N-(7-(4-(Hydroxymethyl)piperidin-1-yl)-3-oxo-3,4-dihydro-2H-benzo[b][1,4]oxazin-6-yl)pyrazolo[1,5-a]pyrimidine-3-carboxamide] |
| 150 | CNC[C@H]1OC[C@H](c2cc3c(cc2NC(=O)c2cnn4cccnc24)CC(C)(C)O3)CO1 [Example 3, Trans-N-[2,2-dimethyl-6-[2-(methylaminomethyl)-1,3-dioxan-5-yl]-3H-benzofuran-5-yl]pyrazolo[1,5-a]pyrimidine-3-carboxamide] |
| 1.5 | CC1(C)Cc2cc(NC(=O)c3cnn4cccnc34)c(N3CCC(CO)CC3)cc2O1 [Example 4, N-(6-(4-(Hydroxymethyl)piperidin-1-yl)-2,2-dimethyl-2,3-dihydrobenzofuran-5-yl)pyrazolo[1,5-a]pyrimidine-3-carboxamide] |
| 54 | CC1(C)CNc2cc(NC(=O)c3cnn4cccnc34)c(N3CCOCC3)cc2O1 [Example 5, N-(2,2-Dimethyl-7-morpholino-3,4-dihydro-2H-benzo[b][1,4]oxazin-6-yl)pyrazolo[1,5-a]pyrimidine-3-carboxamide] |
| 3.9 | Cc1cnc2c(C(=O)Nc3cc4c(cc3N3CCC(CO)CC3)OCCN4)cnn2c1 [Example 7, N-(7-(4-(Hydroxymethyl)piperidin-1-yl)-3,4-dihydro-2H-benzo[b][1,4]oxazin-6-yl)-6-methylpyrazolo[1,5-a]pyrimidine-3-carboxamide] |
| 2.3 | CC1(C)Cc2cc(NC(=O)c3cnn4cccnc34)c(N3CCN(CC(F)F)CC3)cc2O1 [Example 8, N-[6-[4-(2,2-Difluoroethyl)piperazin-1-yl]-2,2-dimethyl-3H-benzofuran-5-yl]pyrazolo[1,5-a]pyrimidine-3-carboxamide] |
